Experimental data from patent US5061794A, “Cephalosporin derivatives, and antibacterial agents” (priority 1986, dated 1991).
Counter-ions that a name gives are not always drawn. Like-named read-outs stand apart in the source and are kept apart here.

Columns and labels:
A. calcoaceticus No. 4 = assay: in vitro antibacterial activity, agar plate dilution method (MIC); type: cell-based, Acinetobacter calcoaceticus; conditions: Acinetobacter calcoaceticus, NO.4, 16 h, 10^6 CFU/ml
Summary of the method: (§1)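 Inoculum 10^6 CFU/ml; medium Mueller Hinton agar with graded antibiotic; 37° C./16 h; endpoint MIC (μg/ml).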

E. coli CSH2 (RK1) = assay: microbe, parasite or virus in culture; type: cell-based; conditions: Escherichia coli, 16 h, read-out: Minimum Inhibitory Concentration (MIC), *E. coli CSH2 (RK1), lactamase-producing strain; 10^6 CFU/ml
Summary of the method: as §1

E. coli CSH(RE45) = assay: microbe, parasite or virus in culture; type: cell-based; conditions: Escherichia coli, 16 h, read-out: Minimum Inhibitory Concentration (MIC), *E. coli CSH(RE45), lactamase-producing strain; 10^6 CFU/ml
Summary of the method: as §1

Ps. cepacia 23 = assay: in vitro antibacterial activity, agar plate dilution method (MIC); type: cell-based, Pseudomonas cepacia; conditions: read-out: Minimum Inhibitory Concentration (MIC)
Summary of the method: as §1

P. vulgaris No. 33 = assay: as above; type: cell-based; conditions: Proteus vulgaris, 10^6 CFU/ml
Summary of the method: as §1

K. pneumoniae No. 42 = assay: as above; type: cell-based; conditions: Klebsiella pneumoniae, 10^6 CFU/ml
Summary of the method: as §1

E. coli NIHJ JC2 = assay: as above; type: cell-based; conditions: Escherichia coli
Summary of the method: as §1

P. vulgaris HX-19 = assay: as above; type: cell-based; conditions: Proteus vulgaris, HX19, 16 h, P. vulgaris HX-19; 10^6 CFU/ml; read-out: Minimum Inhibitory Concentration (MIC)
Summary of the method: as §1

E. coli GN5482 = assay: as above; type: cell-based; conditions: Escherichia coli
Summary of the method: as §1

S. marcescens No. 16-2 = assay: as above; type: cell-based; conditions: Serratia marcescens, NO.162, 16 h
Summary of the method: as §1

K. oxytoca GN10650 = assay: as above; type: cell-based; conditions: Klebsiella oxytoca, 10^6 CFU/ml
Summary of the method: as §1

K. pneumoniae PCI-602 = assay: as above; type: cell-based; conditions: Klebsiella pneumoniae, PCI602, 16 h, 10^6 CFU/ml
Summary of the method: as §1

S. aureus 209P NIHJ-JC1 = assay: as above; type: cell-based; conditions: Staphylococcus aureus, 16 h
Summary of the method: as §1

E. cloacae 963 = assay: as above; type: cell-based; conditions: 10^6 CFU/ml
Summary of the method: as §1

E. cloacae Nek 39 = assay: as above; type: cell-based; conditions: Enterobacter cloacae, NEK39, 16 h, 10^6 CFU/ml
Summary of the method: as §1

M. morganii GN5407 = assay: as above; type: cell-based; conditions: Morganella morganii, 10^6 CFU/ml
Summary of the method: as §1

S. marcescens IAM 1184 = assay: as above; type: cell-based; conditions: Serratia marcescens, IAM1184, 16 h, read-out: Minimum Inhibitory Concentration (MIC)
Summary of the method: as §1

Ps. aeruginosa AK 109 = assay: as above; type: cell-based, Pseudomonas aeruginosa; conditions: Pseudomonas aeruginosa, AK109, 16 h, 10^6 CFU/ml
Summary of the method: as §1

Ps. aeruginosa AKR17 = assay: as above; type: cell-based, Pseudomonas aeruginosa; conditions: Pseudomonas aeruginosa
Summary of the method: as §1

Ps. aeruginosa IF03445 = assay: as above; type: cell-based, Pseudomonas aeruginosa; conditions: Pseudomonas aeruginosa, 10^6 CFU/ml
Summary of the method: as §1

[1] = A. calcoaceticus No. 4, read-out: Minimum Inhibitory Concentration (MIC)
[2] = NO.33, 16 h, read-out: Minimum Inhibitory Concentration (MIC), *P. vulgaris No. 33, lactamase-producing strain
[3] = NO.42, 16 h, read-out: Minimum Inhibitory Concentration (MIC), *K. pneumoniae No. 42, lactamase-producing strain
[4] = NIHJJC2, 16 h, read-out: Minimum Inhibitory Concentration (MIC), E. coli NIHJ JC2, 10^6 CFU/ml, 37° C.
[5] = GN5482, 16 h, read-out: Minimum Inhibitory Concentration (MIC)
[6] = read-out: Minimum Inhibitory Concentration (MIC)
[7] = GN10650, 16 h, read-out: Minimum Inhibitory Concentration (MIC), *K. oxytoca GN10650, lactamase-producing strain
[8] = read-out: Minimum Inhibitory Concentration (MIC), K. pneumoniae PCI-602
[9] = S. aureus 209P NIHJ-JC1, 10^6 CFU/ml, 37° C., 16 hours, read-out: Minimum Inhibitory Concentration (MIC)
[10] = Enterobacter cloacae, 963, 16 h, read-out: Minimum Inhibitory Concentration (MIC), E. cloacae 963
[11] = read-out: Minimum Inhibitory Concentration (MIC), *E. cloacae Nek 39, lactamase-producing strain
[12] = GN5407, 16 h, read-out: Minimum Inhibitory Concentration (MIC), *M. morganii GN5407, lactamase-producing strain
[13] = Ps. aeruginosa AK 109, read-out: Minimum Inhibitory Concentration (MIC)
[14] = 16 h, Ps. aeruginosa AKR17, 10^6 CFU/ml, read-out: Minimum Inhibitory Concentration (MIC)
[15] = 16 h, Ps. aeruginosa IF03445, read-out: Minimum Inhibitory Concentration (MIC)
[16] = read-out: Minimum Inhibitory Concentration (MIC), A. calcoaceticus No. 4
[17] = Burkholderia cepacia, 16 h, Ps. cepacia 23, 10^6 CFU/ml
[18] = read-out: Minimum Inhibitory Concentration (MIC), *S. marcescens No. 16-2, lactamase-producing strain, 10^6 CFU/ml
[19] = Enterobacter cloacae, 16 h, E. cloacae 963, read-out: Minimum Inhibitory Concentration (MIC)
[20] = S. marcescens IAM 1184, 10^6 CFU/ml
[21] = IF03445, 16 h, read-out: Minimum Inhibitory Concentration (MIC), Ps. aeruginosa IF03445

Compound	MIC (A. calcoaceticus No. 4; [1])	MIC (E. coli CSH2 (RK1))	MIC (E. coli CSH(RE45))	MIC (P. vulgaris No. 33; [2])	MIC (K. pneumoniae No. 42; [3])	MIC (E. coli NIHJ JC2; [4])	MIC (P. vulgaris HX-19)	MIC (E. coli GN5482; [5])	MIC (S. marcescens No. 16-2; [6])	MIC (K. oxytoca GN10650; [7])	MIC (K. pneumoniae PCI-602; [8])	MIC (S. aureus 209P NIHJ-JC1; [9])	MIC (E. cloacae Nek 39; [11])	MIC (M. morganii GN5407; [12])	MIC (Ps. aeruginosa AK 109; [13])	MIC (Ps. aeruginosa AKR17; [14])	MIC (Ps. cepacia 23; [17])	MIC (E. cloacae 963; [19])	MIC (S. marcescens IAM 1184; [20])	MIC (Ps. aeruginosa IF03445; [21])	also measured
CO/N=C(\C(=O)N[C@@H]1C(=O)N2C(C(=O)O)=C(CSc3nc(-c4ccccc4)cs3)CS[C@H]12)c1csc(N)n1 [compound 9, sodium 7μ-[2-(2-aminothiazol-4-yl)-2-methoxyiminoacetamido]-3-(4-phenylthiazol-2-yl)-thiomethyl-3-cephem-4-carboxylate, reference compound]	25 µg/mL	0.39 µg/mL	0.78 µg/mL	0.78 µg/mL	1.56 µg/mL	0.78 µg/mL	< 0.006 µg/mL	0.39 µg/mL	3.12 µg/mL	3.12 µg/mL	< 0.006 µg/mL	0.1 µg/mL	3.12 µg/mL	0.78 µg/mL	25 µg/mL	> 100 µg/mL	–	–	–	–	MIC (Ps. cepacia 23; Burkholderia cepacia, 23, 16 h): 3.12 µg/mL; MIC (E. cloacae 963; [10]): 1.56 µg/mL; MIC (S. marcescens IAM 1184): 0.39 µg/mL; MIC (Ps. aeruginosa IF03445; [15]): 25 µg/mL
CC(C)O/N=C(\C(=O)N[C@@H]1C(=O)N2C(C(=O)O)=C(CSc3nnc(-c4ccc(O)c(O)c4)o3)CS[C@H]12)c1csc(N)n1 [Ex. 7, sodium 78-[2-(2-aminothiazol-4-yl)-2-isopropoxyiminoacetamido]-3-[5-(3,4-dihydroxyphenyl)-1,3,4-oxadiazol-2-yl]thiomethyl-3-cephem-4-carboxylate]	–	< 0.006 µg/mL	1.56 µg/mL	0.0125 µg/mL	0.025 µg/mL	0.1 µg/mL	< 0.006 µg/mL	0.39 µg/mL	–	0.1 µg/mL	< 0.006 µg/mL	–	0.05 µg/mL	0.0125 µg/mL	0.2 µg/mL	50 µg/mL	< 0.006 µg/mL	0.0125 µg/mL	0.025 µg/mL	0.39 µg/mL	MIC (A. calcoaceticus No. 4; [16]): 0.1 µg/mL; MIC (S. marcescens No. 16-2; [18]): 1.56 µg/mL; MIC (S. aureus 209P NIHJ-JC1; read-out: Minimum Inhibitory Concentration (MIC), S. aureus 209P NIHJ-JC1, 10^6 CFU/ml, 37° C., 16 hours): 1.56 µg/mL
CO/N=C(\C(=O)N[C@@H]1C(=O)N2C(C(=O)O)=C(CSc3nnc(-c4ccccc4)s3)CS[C@H]12)c1csc(N)n1 [compound 5, 7β-[2-(2-aminothiazol-4-yl)-2-methoxyiminoacetamido]-3-(5-phenyl-1,3,4-thiadiazol-2-yl) thiomethyl-3-cephem-4-carboxylic acid trifluoroacetate, reference compound]	3.12 µg/mL	0.2 µg/mL	0.2 µg/mL	–	–	–	0.0125 µg/mL	–	–	–	–	0.39 µg/mL	–	–	50 µg/mL	> 100 µg/mL	3.12 µg/mL	0.78 µg/mL	0.78 µg/mL	–	MIC (P. vulgaris No. 33; 16 h, *P. vulgaris No. 33, lactamase-producing strain, read-out: Minimum Inhibitory Concentration (MIC)): 0.39 µg/mL; MIC (K. pneumoniae No. 42; 16 h, *K. pneumoniae No. 42, lactamase-producing strain, read-out: Minimum Inhibitory Concentration (MIC)): 0.78 µg/mL; MIC (E. coli NIHJ JC2; NIHJJC2, E. coli NIHJ JC2, 10^6 CFU/ml, 37° C., 16 hours, read-out: Minimum Inhibitory Concentration (MIC)): 0.39 µg/mL; MIC (E. coli GN5482; 16 h, *E. coli GN5482, lactamase-producing strain, 10^6 CFU/ml, read-out: Minimum Inhibitory Concentration (MIC)): 0.39 µg/mL; MIC (S. marcescens No. 16-2; *S. marcescens No. 16-2, lactamase-producing strain, 10^6 CFU/ml, read-out: Minimum Inhibitory Concentration (MIC)): 3.12 µg/mL; MIC (K. oxytoca GN10650; 16 h, *K. oxytoca GN10650, lactamase-producing strain, read-out: Minimum Inhibitory Concentration (MIC)): 6.25 µg/mL; MIC (K. pneumoniae PCI-602; K. pneumoniae PCI-602, read-out: Minimum Inhibitory Concentration (MIC)): 0.0125 µg/mL; MIC (E. cloacae Nek 39; *E. cloacae Nek 39, lactamase-producing strain, read-out: Minimum Inhibitory Concentration (MIC)): 3.12 µg/mL; MIC (M. morganii GN5407; 16 h, *M. morganii GN5407, lactamase-producing strain, read-out: Minimum Inhibitory Concentration (MIC)): 0.78 µg/mL; MIC (Ps. aeruginosa IF03445; [15]): 50 µg/mL
Nc1nc(/C(=N/OC2(C(=O)O)CC2)C(=O)N[C@@H]2C(=O)N3C(C(=O)O)=C(CSc4nnc(-c5ccc(O)c(O)c5)s4)CS[C@H]23)cs1 [Ex. 35, disodium 7β-[2-(2-aminothiazol-4-yl)-2-(1-carboxylate-1-cyclooropoxyimino)acetamido]-3-[5-(3,4-dihydroxyphenyl)-1,3,4-thiadiazol-2-yl]thiomethyl-3-cephem-4-carboxylate]	0.05 µg/mL	< 0.006 µg/mL	< 0.006 µg/mL	0.0125 µg/mL	0.0125 µg/mL	0.2 µg/mL	< 0.006 µg/mL	0.39 µg/mL	0.39 µg/mL	0.025 µg/mL	< 0.006 µg/mL	–	0.05 µg/mL	0.05 µg/mL	0.2 µg/mL	–	< 0.006 µg/mL	–	0.025 µg/mL	0.39 µg/mL	MIC (S. aureus 209P NIHJ-JC1; [6]): 12.5 µg/mL; MIC (E. cloacae 963; [10]): 0.05 µg/mL; MIC (Ps. aeruginosa AKR17; AKR17, 16 h, read-out: Minimum Inhibitory Concentration (MIC), Ps. aeruginosa AKR17, 10^6 CFU/ml): 1.56 µg/mL
CC(=O)Oc1ccc(-c2nc(SCC3=C(C(=O)O)N4C(=O)C(NC(=O)C(=NOC5(C(=O)O)CC5)c5csc(N)n5)C4SC3)sc2CC(=O)O)cc1OC(C)=O (stereo not shown) [Example 60 (II), trisodium 3-[4-(3,4-diacetoxyphenyl)-5-carboxylate-methylthiazol-2-yl]thiomethyl-78-[2-(2-aminothiazol-4-yl)-2-(1-carboxylate-1-cyclopropoxyimino)acetamido]-3-cephem-4-carboxylate]	–	0.0125 µg/mL	3.12 µg/mL	0.025 µg/mL	0.1 µg/mL	0.78 µg/mL	< 0.006 µg/mL	–	–	0.1 µg/mL	< 0.006 µg/mL	25 µg/mL	0.2 µg/mL	0.1 µg/mL	–	–	< 0.006 µg/mL	0.2 µg/mL	0.05 µg/mL	0.78 µg/mL	MIC (A. calcoaceticus No. 4; [16]): 0.1 µg/mL; MIC (E. coli GN5482; GN5482, 16 h, read-out: Minimum Inhibitory Concentration (MIC), *E. coli GN5482, lactamase-producing strain, 10^6 CFU/ml): 0.78 µg/mL; MIC (S. marcescens No. 16-2; [18]): 0.78 µg/mL; MIC (Ps. aeruginosa AK 109; read-out: Minimum Inhibitory Concentration (MIC), Ps. aeruginosa AK 109): 1.56 µg/mL; MIC (Ps. aeruginosa AKR17; AKR17, 16 h, read-out: Minimum Inhibitory Concentration (MIC)): 3.12 µg/mL
